According to patent US9056104B2, “Dynamic inhibitors of heat shock protein 90” (THE UNIVERSITY OF KANSAS, priority 2011, dated 2015):
Like-named read-outs stand apart in the source and are kept apart here.

Legend:
Format in all cases: cell-based
[1] = system: SKBr3 (estrogen receptor negative, Her2 over-expressing breast cancer cells); assay: Anti-proliferative activity against SKBr3 cells; conditions: mean ± SD
Method: (§1) Once synthesized, the library of coumermycin A1 analogs containing the olefinic and saturated linkers, were evaluated for anti-proliferative activity against SKBr3 (estrogen receptor negative, Her2 over-expressing breast cancer cells), MCF-7 (estrogen receptor positive breast cancer cells), A549 (human lung adenocarcinoma epithelial), HT29 (Human colon adenocarcinoma grade II), and PC3mm2 (androgen receptor insensitive prostate cancer) cell lines. […] As shown, X is at the 6 position and Y is at the 8 position.

[2] = system: MCF-7 (estrogen receptor positive breast cancer cells); assay: Anti-proliferative activity against MCF-7 cells; conditions: mean ± SD
Method: as §1

[3] = system: PC3mm2 (androgen receptor insensitive prostate cancer); assay: Anti-proliferative activity against PC3mm2 cells; conditions: Table 2; read-out: Anti-Proliferation Activities of non-Noviosylated Olefin Dimers, PC3mm2
Method: as §1, with “lines. The activities produced provide insight into the optimal distance between binding sites and provide rationale for subsequent analog design.” for “lines.”

[4] = system: A549 (human lung adenocarcinoma epithelial); assay: Anti-proliferative activity against A549 cells; conditions: Table 2; read-out: Anti-Proliferation Activities of non-Noviosylated Olefin Dimers, A549
Method: as §1, with “lines. The activities produced provide insight into the optimal distance between binding sites and provide rationale for subsequent analog design.” for “lines.”

[5] = system: HT29 (Human colon adenocarcinoma grade II); assay: Anti-proliferative activity against HT29 cells; conditions: Table 2; read-out: Anti-Proliferation Activities of non-Noviosylated Olefin Dimers, HT29
Method: as §1, with “lines. The activities produced provide insight into the optimal distance between binding sites and provide rationale for subsequent analog design.” for “lines.”

[6] = system: SKBr3, MCF-7, A549, HT29 and PC3mm2 cell lines; assay: Anti-proliferative activity, cell lines not specified; conditions: 8-methyl coumarin series, versus Compound 32
Method: as §1, with “lines. The activities produced provide insight into the optimal distance between binding sites and provide rationale for subsequent analog design.” for “lines.”

[7] = system: HSP90-dependent client proteins (Her-2, Raf, Akt); assay: Western blot analyses of HSP90 client protein degradation in MCF-7 breast cancer cells; conditions: MCF-7 lysates, 24 hour treatment, 5x and 1/2 of antiproliferative IC50; actin control
Method: Since actin is not dependent on HSP90 for its maturation, actin levels should remain constant after treatment with an HSP90 inhibitor and is therefore used as a control. […] L represents a concentration ½ of the anti-proliferative IC50 value while H represents a concentration 5 times greater than the anti-proliferative IC50 value. GDA (500 nM) represents a positive control, while DMSO (0), vehicle, serves as the negative control. […]

[8] = Table 1, at least two experiments in triplicate, read-out: Anti-Proliferation Activities of Noviosylated Olefin Dimers, SKBr3
[9] = Table 1, at least two experiments in triplicate, read-out: Anti-Proliferation Activities of Noviosylated Olefin Dimers, MCF-7
[10] = Table 2, read-out: Anti-Proliferation Activities of non-Noviosylated Olefin Dimers, SKBr3
[11] = Table 2, read-out: Anti-Proliferation Activities of non-Noviosylated Olefin Dimers, MCF7

IC50 [1, 8] [nM]	IC50 [2, 9] [nM]	IC50 [1, 10] [nM]	IC50 [2, 11] [nM]	IC50 [3] [nM]	IC50 [4] [nM]	IC50 [5] [nM]	Structure (SMILES)	fold more active than the 10-carbon linker (Compound 32) [6]	degradation of HSP90 client proteins (Her-2, Raf, Akt), Western blot [7]
> 100000	> 100000	–	–	–	–	–	COc1cc2cc(NC(=O)CC=CCC(=O)Nc3cc4cc(OC)c(OC5OC(C)(C)C(OC)C(O)C5O)c(C)c4oc3=O)c(=O)oc2c(C)c1OC1OC(C)(C)C(OC)C(O)C1O (stereo not drawn) [Compound 16]	–	–
52000 ± 7800	> 100000	–	–	–	–	–	COc1c(OC2OC(C)(C)C(OC)C(O)C2O)ccc2cc(NC(=O)CC=CCC(=O)Nc3cc4ccc(OC5OC(C)(C)C(OC)C(O)C5O)c(OC)c4oc3=O)c(=O)oc12 (stereo not drawn) [Compound 17]	–	–
106000 ± 13200	168000 ± 9700	–	–	–	–	–	COc1cc2cc(NC(=O)CCC=CCCC(=O)Nc3cc4cc(OC)c(OC5OC(C)(C)C(OC)C(O)C5O)c(C)c4oc3=O)c(=O)oc2c(C)c1OC1OC(C)(C)C(OC)C(O)C1O (stereo not drawn) [Compound 18]	–	–
1500 ± 100	3900 ± 700	–	–	–	–	–	COC1C(O)C(O)C(Oc2ccc3cc(NC(=O)CCC=CCCC(=O)Nc4cc5ccc(OC6OC(C)(C)C(OC)C(O)C6O)c(C)c5oc4=O)c(=O)oc3c2C)OC1(C)C (stereo not drawn) [Compound 21]	–	–
–	–	180 ± 30	290 ± 10	7510	8840	7100	Cc1c(OC2CCN(C)CC2)ccc2cc(NC(=O)C/C=C/CC(=O)Nc3cc4ccc(OC5CCN(C)CC5)c(C)c4oc3=O)c(=O)oc12 [Compound 26]	–	–
–	–	270 ± 10	560 ± 50	170	550	–	COc1cc2cc(NC(=O)C/C=C/CC(=O)Nc3cc4cc(OC)c(OC5CCN(C)CC5)c(C)c4oc3=O)c(=O)oc2c(C)c1OC1CCN(C)CC1 [Compound 27]	–	–
–	–	710 ± 40	1460 ± 200	8630	–	–	COc1c(OC2CCN(C)CC2)ccc2cc(NC(=O)C/C=C/CC(=O)Nc3cc4ccc(OC5CCN(C)CC5)c(OC)c4oc3=O)c(=O)oc12 [Compound 28]	–	–
–	–	150 ± 10	270 ± 20	4190	5540	50	Cc1c(OC2CCN(C)CC2)ccc2cc(NC(=O)CC/C=C/CCC(=O)Nc3cc4ccc(OC5CCN(C)CC5)c(C)c4oc3=O)c(=O)oc12 [Compound 29]	2-3 fold	–
–	–	1100 ± 130	1310 ± 100	4860	13400	–	COc1cc2cc(NC(=O)CC/C=C/CCC(=O)Nc3cc4cc(OC)c(OC5CCN(C)CC5)c(C)c4oc3=O)c(=O)oc2c(C)c1OC1CCN(C)CC1 [Compound 30]	–	–
–	–	2220 ± 500	1120 ± 30	60	1220	–	COc1c(OC2CCN(C)CC2)ccc2cc(NC(=O)CC/C=C/CCC(=O)Nc3cc4ccc(OC5CCN(C)CC5)c(OC)c4oc3=O)c(=O)oc12 [Compound 31]	–	no activity against HSP90 client proteins
–	–	220 ± 50	310 ± 50	380	37700	–	COc1cc2cc(NC(=O)CCC/C=C/CCCC(=O)Nc3cc4cc(OC)c(OC5CCN(C)CC5)c(C)c4oc3=O)c(=O)oc2c(C)c1OC1CCN(C)CC1 [Compound 33]	–	–
–	–	370 ± 50	880 ± 110	50	1210	–	COc1c(OC2CCN(C)CC2)ccc2cc(NC(=O)CCC/C=C/CCCC(=O)Nc3cc4ccc(OC5CCN(C)CC5)c(OC)c4oc3=O)c(=O)oc12 [Compound 34]	–	–

Structure (SMILES)	IC50 [1, 8] [nM]	IC50 [2, 9] [nM]	IC50 [1, 10] [nM]	IC50 [2, 11] [nM]	IC50 [3] [nM]	IC50 [4] [nM]	IC50 [5] [nM]	fold more active than the 10-carbon linker (Compound 32) [6]	degradation of HSP90 client proteins (Her-2, Raf, Akt), Western blot [7]
COC1C(O)C(O)C(Oc2ccc3cc(NC(=O)CC=CCC(=O)Nc4cc5ccc(OC6OC(C)(C)C(OC)C(O)C6O)c(C)c5oc4=O)c(=O)oc3c2C)OC1(C)C (stereo not drawn) [Compound 20]	> 100000	53100 ± 7100	–	–	–	–	–	–	–
